Measured values from US9233915B2, “Polyunsaturated fatty acid monoglycerides, derivatives, and uses thereof” (SCF PHARMA INC., priority 2007, dated 2016).

What was measured:
A549 cells = assay: in vivo tumor xenograft, A549 in CD-1 nude mice; conditions: per os 618 mg/kg daily from the day after cell inoculation; vs control (corn oil)
Method: In vivo tumor xenograft experiments. Male and female CD-1 nude mice were obtained from Charles River Laboratories (Montreal, QC, Canada). All studies involving mice were approved by the institutional animal care committee. Human A549 or HCT-116 xenografts were established in 4-week-old CD-1 nude mice. Mice were subcutaneously inoculated with 0.2 ml of a solution of 1×10^6 A549 or HCT-116 cells on the right flank. Mice were randomly assigned into 2 groups, control (untreated) and compound 1, 5 or 6 treated (n=6 per group). Compound 1, 5 or 6 were administrated per os (618 mg/kg) daily following cell inoculation. Tumor volumes (V) were calculated using the formula: V=(a×b2)/2, where “a” is the largest superficial diameter and “b” the smallest.

[1] = tested on: A549 human lung cancer cell line; assay: cell growth assay (trypan blue cell count) on A549; type: cell-based; conditions: 48 h, read-out: growth inhibition of the cancer cells
Method: (§1) The A549 and HCT-116 cells were maintained in RPMI 1640 or McCoy's 5A (Wisent, St-Bruno, QC, Canada) containing 10% FBS and 10 units/ml penicillin, 100 μg/ml streptomycin. Cells were grown in a 5% CO2 incubator at 37° C. Cells were untreated or treated with SCF compounds
(§2) A predefined number of either A549 or HCT-116 cells were allowed to grow in 24 wells plates (1×10^4 cells/well) for 3 days until cells reached 70% confluence. Then, cells were starved in RPMI or McCoy's 5A medium without FBS for 8 h. Then, the culture medium was replaced with RPMI or McCoy's 5A+0.2% FBS and 3 μM of test compounds were added to each well. Culture media were changed every 24 h and cells were treated for 48 h. After 48, the medium was removed from the culture plates and 0.05% trypsin-EDTA was used to detach the cells from the surface of the culture plates. The harvested cells were counted, both the viable and dead ones, using a Countess Automated Cell Counter (Invitrogen Inc.). Briefly, for each condition an appropriated cell dilution was prepared from the harvested cells and an aliquot was mixed with an equal volume of 0.4% trypan blue, and 10 μl was transferred into each side of a Countess™ chamber slide. All concentrations tested were performed in triplicata and were representative of 5 independent experiments.

HCT-116 cells = assay: in vivo tumor xenograft, HCT-116 in CD-1 nude mice; conditions: per os 618 mg/kg daily from the day after the tumor reach; vs control (corn oil)
Method: In vivo tumor xenograft experiments. Male and female CD-1 nude mice were obtained from Charles River Laboratories (Montreal, QC, Canada). All studies involving mice were approved by the institutional animal care committee. Human A549 or HCT-116 xenografts were established in 4-week-old CD-1 nude mice. Mice were subcutaneously inoculated with 0.2 ml of a solution of 1×10^6 A549 or HCT-116 cells on the right flank. Mice were randomly assigned into 2 groups, control (untreated) and compound 1, 5 or 6 treated (n=6 per group). […] Tumor volumes (V) were calculated using the formula: V=(a×b2)/2, where “a” is the largest superficial diameter and “b” the smallest.

[2] = human, in vivo
Method: Controlled amount of boiled pasta was eaten after the 4 h time point. An initial blood sample (400 μl) was collected using a lancet at a fingertip into heparin tubes followed by samples at 1, 2, 3, 4, 5, 6, 7 and 8 hour after ingestion. Plasma was separated and immediately analysed for fatty acid composition.
The relative bioavailability of fatty acids from composition 2 compared to fish oil is calculated with the formula:
The AUC (calculates area under the curve for concentration vs. time data) is calculated using linear trapezoidal rule. […] The relative bioavailability of compound 1 and compound 5 is calculated with the same formula:

[3] = tested on: HCT116 human colon cancer cell line; assay: cell growth assay (trypan blue cell count) on HCT116; type: cell-based; conditions: HCT-116, 48 h, read-out: growth inhibition of the cancer cells
Method: as §1, §2

Compound	tumor progression (tumor volume) (A549 cells)	inhibition at 3 µM [1]	tumor progression (tumor volume) (HCT-116 cells)	relative bioavailability of compound 1 compared to compound 5 [2]	inhibition at 3 µM [3]
CC/C=C\C/C=C\C/C=C\C/C=C\C/C=C\C/C=C\CCC(=O)OCC(O)CO (stereo not shown) [compound 5]	tumor progression was significantly reduced	> 50%	–	–	–
CC/C=C\C/C=C\C/C=C\C/C=C\C/C=C\CCCCCC(=O)OCC(O)CO (stereo not shown) [compound 1]	–	–	tumor progression was immediately stopped and tumor volume significantly decrease over time	2.20	> 50%
CC/C=C\C/C=C\C/C=C\C/C=C\C/C=C\CCCC(=O)OCC(O)CO (stereo not shown) [compound 6]	–	–	tumor progression was immediately stopped and tumor volume slightly decrease over time	–	> 50%
